From US7687643B2, “Process for preparing 3,3-dimethylindolines” (Amgen Inc., priority 2001, dated 2010)

What follows are molecules tested on Human Umbilical Vein Endothelial cells (VEGF-stimulated) (assay: HUVEC proliferation assay, VEGF-stimulated). Details: VEGF 50 ng/mL, 72 h, CyQuant, read-out: inhibited VEGF-stimulated HUVEC proliferation at a level.
Format: cell-based
Summary of the method: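 Pooled-donor HUVECs (passage 2–3) seeded in DMEM+10% FBS for 22 h, then pre-treated 2–3 h with five-point, five-fold compound dilutions (0.25% DMSO final). Stimulated with 50 ng/mL VEGF (bFGF 20 ng/mL on separate plates) for 72 h at 37 °C. CyQuant fluorescence (485/530 nm) after freeze-thaw; IC50 from 4-parameter fit.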
In the case of CS(=O)(=O)Nc1cc(NC(=O)c2cccnc2NCc2ccncc2)cc(C(F)(F)F)c1 [Example 1095, N-(3-((methylsulfonyl)amino)-5-(trifluoromethyl)phenyl)-2-((4-pyridinylmethyl)amino)-3-pyridinecarboxamide], the IC50 is reported as less than 0.05 µM. Work on O=C(Nc1cc(OCC2CNC2)cc(C(F)(F)F)c1)c1cccnc1NCc1ccncc1 [Example 977, N-[3-(azetidin-3-ylmethoxy)-5-trifluoromethyl-phenyl]-2-[(pyridin-4-ylmethyl)-amino]-nicotinamide] yielded an IC50 of less than 0.05 µM. With CC1(C)CNCc2cc(NC(=O)c3cccnc3NCc3ccc4ncccc4c3)ccc21 [Example 1061, N-(4,4-dimethyl-1,2,3,4-tetrahydro-7-isoquinolinyl)-2-((6-quinolinylmethyl)amino)-3-pyridinecarboxamide] the IC50 was less than 0.05 µM. O=C(Nc1ccc(Cl)cc1)c1ncccc1NCc1ccc2ncccc2c1 [Example 7, N-(4-Chlorophenyl){3-[(6-quinolylmethyl)amino](2-pyridyl)}carboxamide] was tested, and the IC50 was less than 0.05 µM. Molecule O=C(Nc1cccc(C(F)(F)F)c1)c1ccc(F)nc1NCc1ccncc1 [Example 156, {6-Fluoro-2-[(4-pyridylmethyl)amino](3-pyridyl)}-N-[3-(trifluoromethyl)phenyl]carboxamide] has an IC50 of less than 0.05 µM. COC(=O)C(C)(C)c1ccc(NC(=O)c2cccnc2NCc2ccncc2)cc1 [Example 985, 2-Methyl-2-[4-({2-[(pyridin-4-ylmethyl)-amino]-pyridine-3-carbonyl}-amino)-phenyl]-propionic acid methyl ester] gave an IC50 of less than 0.05 µM. Molecule CNc1cc(CNc2ncccc2C(=O)Nc2ccc3c(c2)NCCC3(C)C)ccn1 [Example 1194] has an IC50 of less than 0.05 µM. CCOC(=O)N1CC2(CC2)c2ccc(NC(=O)c3cccnc3NCc3ccnc(NC)n3)cc21 [Example 1108, Ethyl [1,2-dihydro-6-({2-[(2-methylamino-pyrimidin-4-ylmethyl)-amino]-pyridine-3-carbonyl}-amino)-3-spiro-1′-cyclopropyl-1H-indole]-1-carbamate] was tested, and the IC50 was less than 0.05 µM. With CC1(C)CNCc2cc(NC(=O)c3cccnc3NCc3ccnc(N)c3)ccc21 [Example 1168, 2-(((2-Amino-4-pyridinyl)methyl)amino)-N-(4,4-dimethyl-1,2,3,4-tetrahydro-7-isoquinolinyl)-3-pyridinecarboxamide] the IC50 was less than 0.05 µM. COc1cc(CNc2ncccc2C(=O)Nc2ccc(C(C)(C)C)c(OC[C@@H]3CCCN3)c2)ccn1 [Example 1067, N-(4-(1,1-dimethylethyl)-3-(((2S)-2-pyrrolidinylmethyl)oxy)phenyl)-2-(((2-(methyloxy)-4-pyridinyl)methyl)amino)-3-pyridinecarboxamide] showed an IC50 of less than 0.05 µM. For CC(C)c1ccc(NC(=O)c2ccc(F)nc2NCc2ccncc2)cc1 [Example 155, {6-Fluoro-2-[(4-pyridylmethyl)amino](3-pyridyl)}-N-[4-(isopropyl)phenyl]carboxamide], the IC50 was less than 0.05 µM. For O=C(Nc1cc(CCCN2CCOCC2)cc(C(F)(F)F)c1)c1cccnc1NCc1ccncc1 [Example 964, N-[3-(3-Morpholin-4-yl-propyl)-5-trifluoromethyl-phenyl]-2-[(pyridin-4-ylmethyl)-amino]-nicotinamide], the IC50 was less than 0.05 µM. CC1(C)CNc2cc(NC(=O)c3cccnc3NCc3ccncc3)ccc21 [Example 133, N-(3,3-Dimethylindolin-6-yl){2-[(4-pyridylmethyl)amino](3-pyridyl)}carboxamide] gave an IC50 of less than 0.05 µM. In the case of CC1(C)CCNc2cc(NC(=O)c3cccnc3NCc3ccncn3)ccc21 [Example 1110, N-(4,4-Dimethyl-1,2,3,4-tetrahydro-quinolin-7-yl)-2-[(pyrimidin-4-ylmethyl)-amino]-nicotinamide], the IC50 is reported as less than 0.05 µM. Work on CC1(C)COc2cc(NC(=O)c3cccnc3NCc3ccncc3)ccc21 [Example 973, N-(3,3-Dimethyl-2,3-dihydro-benzofuran-6-yl)-2-[(pyridin-4-ylmethyl)-amino]-nicotinamide] yielded an IC50 of less than 0.05 µM. O=C(Nc1ccc(C(F)(F)C(F)(F)F)c(OC[C@H](O)CN2CCCC2)c1)c1cccnc1NCc1ccncc1 [Example 951, (R) N-[3-(2-Hydroxy-3-pyrrolidin-1-yl-propoxy)-4-pentafluoroethyl-phenyl]-2-[(pyridin-4-ylmethyl)-amino]-nicotinamide] gave an IC50 of less than 0.05 µM. O=C(Nc1ccc(C(F)(F)F)c(OCCN2CCCC2)c1)c1cccnc1NCc1ccncc1 [Example 982, 2-[(Pyridin-4-ylmethyl)-amino]-N-[3-(2-pyrrolidin-1-yl-ethoxy)-4-trifluoromethyl-phenyl]-nicotinamide] was tested, and the IC50 was less than 0.05 µM. For CS(=O)(=O)NCCOc1cc(NC(=O)c2cccnc2NCc2ccncc2)ccc1C(F)(F)C(F)(F)F [Example 1031, N-(3-((2-((Methylsulfonyl)amino)ethyl)oxy)-4-(pentafluoroethyl)phenyl)-2-((4-pyridinylmethyl)amino)-3-pyridinecarboxamide], the IC50 was less than 0.05 µM. For CC1(C)CNCc2cc(NC(=O)c3cccnc3NCc3ccnc4[nH]ccc34)ccc21 [Example 1145, N-(4,4-Dimethyl-1,2,3,4-tetrahydro-isoquinolin-7-yl)-2-[(1H-pyrrolo[2,3-b]pyridin-4-ylmethyl)-amino]-nicotinamide], the IC50 was less than 0.05 µM. Molecule CC1(C)CNCc2cc(NC(=O)c3cccnc3NCc3ccnc4ccccc34)ccc21 [Example 1192, N-(4,4-Dimethyl-1,2,3,4-tetrahydro-isoquinolin-7-yl)-2-[(quinolin-4-ylmethyl)-amino]-nicotinamide] has an IC50 of less than 0.05 µM. Molecule O=C(Nc1cccc(C(F)(F)F)c1)c1cccnc1NCc1ccncc1 [Example 82, 2-[(Pyridin-4-ylmethyl)-amino]-N-(3-trifluoromethyl-phenyl)-nicotinamide] has an IC50 of less than 0.05 µM. O=C(Nc1ccc(C(F)(F)C(F)(F)F)c(OCCN2CCCCC2)c1)c1cccnc1NCc1ccncc1 [Example 955, N-[4-Pentafluoroethyl-3-(2-piperidin-1-yl-ethoxy)-phenyl]-2-[(pyridin-4-ylmethyl)-amino]-nicotinamide] gave an IC50 of less than 0.05 µM. For CC1(C)Oc2ccc(NC(=O)c3cccnc3NCc3ccncc3)cc2NC1=O [Example 944, N-(2,2-Dimethyl-3-oxo-3,4-dihydro-2H-benzo[1,4]oxazin-6-yl)-2-[(pyridin-4-ylmethyl)-amino]-nicotinamide], the IC50 was less than 0.05 µM. CC1(C)CCNc2cc(NC(=O)c3cccnc3NCc3ccnc(N)c3)ccc21 [Example 1111, 2-[(2-Amino-pyridin-4-ylmethyl)-amino]-N-(4,4-dimethyl-1,2,3,4-tetrahydro-quinolin-7-yl)-nicotinamide] gave an IC50 of less than 0.05 µM. Molecule CC1(C)CN(S(C)(=O)=O)c2cc(NC(=O)c3cccnc3NCc3ccnc(N)c3)ccc21 [Example 1059, 2-(((2-amino-4-pyridinyl)methyl)amino)-N-(3,3-dimethyl-1-(methylsulfonyl)-2,3-dihydro-1H-indol-6-yl)-3-pyridinecarboxamide] has an IC50 of less than 0.05 µM. CNc1nccc(CNc2ncccc2C(=O)Nc2cc(OC[C@H]3CCCN3C)cc(C(F)(F)F)c2)n1 [Example 1044, 2-(((2-(methylamino)-4-pyrimidinyl)methyl)amino)-N-(3-((((2R)-1-methyl-2-pyrrolidinyl)methyl)oxy)-5-(trifluoromethyl)phenyl)-3-pyridinecarboxamide] was tested, and the IC50 was less than 0.05 µM. In the case of O=C(Nc1ccc2c(c1)N(CCN1CCCCC1)CC2)c1cccnc1NCc1ccncc1 [Example 130, N-[1-(2-Piperidylethyl)indolin-6-yl]{2-[(4-pyridylmethyl)amino](3-pyridyl)}carboxamide], the IC50 is reported as less than 0.05 µM. Molecule CNc1nccc(CNc2ncccc2C(=O)Nc2ccc3c(c2)NC(=O)CC3(C)C)n1 [Example 1115, N-(4,4-Dimethyl-2-oxo-1,2,3,4-tetrahydro-quinolin-7-yl)-2-[(2-methylamino-pyrimidin-4-ylmethyl)-amino]-nicotinamide] has an IC50 of less than 0.05 µM. Work on CS(=O)(=O)NCCOc1cc(NC(=O)c2cccnc2NCc2ccncc2)ccc1C(F)(F)F [Example 1032, N-(3-((2-((Methylsulfonyl)amino)ethyl)oxy)-4-(trifluoromethyl)phenyl)-2-((4-pyridinylmethyl)amino)-3-pyridinecarboxamide] yielded an IC50 of less than 0.05 µM. CC(CNc1cc(CNc2ncccc2C(=O)Nc2ccc3c(c2)NCC3(C)C)ccn1)N1CCOCC1 (centres unmarked) [Example 1008, N-(3,3-dimethyl-2,3-dihydro-1H-indol-6-yl)-2-{[2-(2-morpholin-4-yl-propylamino)-pyridin-4-ylmethyl]-amino}-nicotinamide] showed an IC50 of less than 0.05 µM. CNc1cc(CNc2ncccc2C(=O)Nc2cc(Cl)cc(NC(=O)CN(C)C)c2)ccn1 [Example 1149, N-[3-Chloro-5-(2-dimethylamino-acetylamino)-phenyl]-2-[(2-methylamino-pyridin-4-ylmethyl)-amino]-nicotinamide] was tested, and the IC50 was less than 0.05 µM. In the case of CN1CCC(C(C)(C)c2ccc(NC(=O)c3cccnc3NCc3ccnc4ccccc34)cc2)CC1 [Example 1028, N-(4-(1-Methyl-1-(1-methyl-4-piperidinyl)ethyl)phenyl)-2-((4-quinolinylmethyl)amino)-3-pyridinecarboxamide], the IC50 is reported as less than 0.05 µM. With O=C(Nc1cc(NC(=O)c2cccnc2NCc2ccncc2)cc(C(F)(F)F)c1)O[C@H]1CCOC1 [Example 1088, (3S)-tetrahydro-3-furanyl 3-(((2-((4-pyridinylmethyl)amino)-3-pyridinyl)carbonyl)amino)-5-(trifluoromethyl)phenylcarbamate] the IC50 was less than 0.05 µM. Work on O=C(Nc1ccc(C(F)(F)F)c(OCCN2CCCC2)c1)c1cccnc1NCc1ccncn1 [Example 1024, 2-((4-Pyrimidinylmethyl)amino)-N-(3-((2-(1-pyrrolidinyl)ethyl)oxy)-4-(trifluoromethyl)phenyl)-3-pyridinecarboxamide] yielded an IC50 of less than 0.05 µM. In the case of O=C(Nc1cc(CCCN2CCCCC2)cc(C(F)(F)F)c1)c1cccnc1NCc1ccncc1 [Example 963, N-[3-(3-Piperidin-1-yl-propyl)-5-trifluoromethyl-phenyl]-2-[(pyridin-4-ylmethyl)-amino]-nicotinamide], the IC50 is reported as less than 0.05 µM.
